Values joined by “and” are separate entries in the source; they are usually repeats but may differ in a detail not shown here. Equal entries are not always repeated.

For one test, the target named is PIK3CA (human) (UniProt P42336). The experiment in a line: Assessment of PIK3CA Kinase Activity.
In another test the target is PIK3CG (human) (UniProt P48736). The experiment in a line: Assessment of PIK3CG Kinase Activity.
The target of test [1] is PIK3CG;PIK3CA (human) (UniProt P48736). The experiment in a line: Assessment of Antiproliferation Activity in LNCaP Cells.
The target is the same in test [2]. The experiment in a line: Assessment of Antiproliferation Activity in MDA-MB-361 Cells.
For test [3] the target is unchanged. In words: Assessment of Antiproliferation Activity in PC3-MM2 Cells. To be noted: pc3mm2.

Sequence of PIK3CA (human) (P42336 whole entry, looked up): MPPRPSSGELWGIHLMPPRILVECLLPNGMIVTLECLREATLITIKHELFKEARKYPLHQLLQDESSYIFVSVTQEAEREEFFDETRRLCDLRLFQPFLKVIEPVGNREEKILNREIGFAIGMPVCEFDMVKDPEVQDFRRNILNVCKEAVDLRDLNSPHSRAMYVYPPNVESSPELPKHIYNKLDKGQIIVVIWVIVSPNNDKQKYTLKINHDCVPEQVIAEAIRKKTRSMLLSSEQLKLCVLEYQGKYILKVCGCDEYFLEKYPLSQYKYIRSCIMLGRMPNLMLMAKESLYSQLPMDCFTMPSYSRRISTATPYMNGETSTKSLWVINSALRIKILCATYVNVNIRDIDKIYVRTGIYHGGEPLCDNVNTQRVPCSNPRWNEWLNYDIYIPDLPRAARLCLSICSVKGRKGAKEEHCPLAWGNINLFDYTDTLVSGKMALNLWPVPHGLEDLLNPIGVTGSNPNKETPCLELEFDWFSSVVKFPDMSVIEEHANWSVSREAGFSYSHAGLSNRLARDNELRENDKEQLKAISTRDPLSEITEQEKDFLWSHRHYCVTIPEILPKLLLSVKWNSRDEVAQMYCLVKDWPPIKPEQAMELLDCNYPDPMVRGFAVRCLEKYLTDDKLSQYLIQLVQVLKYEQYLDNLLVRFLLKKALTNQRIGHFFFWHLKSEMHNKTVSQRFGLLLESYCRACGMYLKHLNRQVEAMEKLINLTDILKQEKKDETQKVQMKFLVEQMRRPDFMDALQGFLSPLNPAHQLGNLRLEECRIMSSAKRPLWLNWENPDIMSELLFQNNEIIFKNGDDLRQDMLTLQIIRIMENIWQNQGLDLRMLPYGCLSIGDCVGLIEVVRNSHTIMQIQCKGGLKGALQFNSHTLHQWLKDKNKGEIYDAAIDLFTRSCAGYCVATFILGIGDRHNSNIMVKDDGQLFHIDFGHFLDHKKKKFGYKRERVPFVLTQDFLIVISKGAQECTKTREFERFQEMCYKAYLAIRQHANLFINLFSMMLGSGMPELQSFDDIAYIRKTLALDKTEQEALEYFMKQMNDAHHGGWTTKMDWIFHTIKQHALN
Sequence of PIK3CG (human) (P48736 whole entry, looked up): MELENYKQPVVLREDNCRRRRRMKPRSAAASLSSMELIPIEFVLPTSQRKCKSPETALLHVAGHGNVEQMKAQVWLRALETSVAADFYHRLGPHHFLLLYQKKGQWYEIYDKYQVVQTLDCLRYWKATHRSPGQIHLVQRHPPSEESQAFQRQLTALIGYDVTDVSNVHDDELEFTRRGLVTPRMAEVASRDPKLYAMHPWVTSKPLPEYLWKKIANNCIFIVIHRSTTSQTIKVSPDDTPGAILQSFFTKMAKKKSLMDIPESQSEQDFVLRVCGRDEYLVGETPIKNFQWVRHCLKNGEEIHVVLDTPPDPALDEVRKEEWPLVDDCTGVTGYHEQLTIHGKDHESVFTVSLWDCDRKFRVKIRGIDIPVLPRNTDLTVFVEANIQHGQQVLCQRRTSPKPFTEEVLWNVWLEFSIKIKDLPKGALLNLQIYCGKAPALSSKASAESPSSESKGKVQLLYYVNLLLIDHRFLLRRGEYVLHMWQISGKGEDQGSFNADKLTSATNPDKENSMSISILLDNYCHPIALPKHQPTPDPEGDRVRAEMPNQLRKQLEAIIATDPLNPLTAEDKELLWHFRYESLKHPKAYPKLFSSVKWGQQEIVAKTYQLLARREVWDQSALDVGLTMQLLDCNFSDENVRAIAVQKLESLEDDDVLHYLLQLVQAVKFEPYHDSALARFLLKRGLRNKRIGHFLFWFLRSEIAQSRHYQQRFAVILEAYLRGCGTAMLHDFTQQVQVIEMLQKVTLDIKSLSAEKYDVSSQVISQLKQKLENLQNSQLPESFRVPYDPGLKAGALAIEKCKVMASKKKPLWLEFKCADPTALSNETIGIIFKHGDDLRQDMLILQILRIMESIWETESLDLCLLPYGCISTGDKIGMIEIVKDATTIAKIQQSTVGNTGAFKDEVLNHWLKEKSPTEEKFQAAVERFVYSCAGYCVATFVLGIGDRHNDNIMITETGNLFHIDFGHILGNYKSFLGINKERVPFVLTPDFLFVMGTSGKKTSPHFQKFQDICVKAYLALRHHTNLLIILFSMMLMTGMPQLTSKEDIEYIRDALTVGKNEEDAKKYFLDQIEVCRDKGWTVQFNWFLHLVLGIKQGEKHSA
Sequence of PIK3CG;PIK3CA (human) (P48736 whole entry, looked up): as above

Regarding `CN(C)CCN(C)C(=O)c1ccc(NC(=O)Nc2ccc(-c3nc(N4CCC4)nc(N4CCOCC4)n3)cc2)cc1`, the IC50 on PIK3CA (human) is 2 nM; at PIK3CG (human), 36 nM.
On to `O=C(Nc1ccc(NCCO)cc1)Nc1ccc(-c2nc(N3C4CCC3COC4)nc(N3C4CCC3COC4)n2)cc1`, for which the IC50 was determined as 1460 nM against PIK3CA (human), 8040 nM at PIK3CG (human) and 70 nM with PIK3CG;PIK3CA (human) [1].
As for `Nc1ccc(-c2nc(-c3ccc(NC(=O)Nc4cccnc4)cc3)nc(N3CC4CCC(C3)O4)n2)cc1`, the figures for the IC50 against PIK3CA (human) and in the test with PIK3CG;PIK3CA (human) [1] were 832 nM and 290 nM, respectively.
Consider `C[C@H]1COCCN1c1nc(-c2ccc(NC(=O)Nc3ccc(C(=O)NCCN4CCCC4)cc3)cc2)nc(N2CCOC[C@@H]2C)n1`, for which the IC50 against PIK3CA (human) was determined as 22 nM; against PIK3CG (human), 378 nM; with PIK3CG;PIK3CA (human) [2], 26 nM; with PIK3CG;PIK3CA (human) [3], 106 nM.
Consider `FC(F)c1nc2ccccc2n1-c1nc(N2CC3CCC(C2)O3)nc(N2CC3CCC(C2)O3)n1`, for which the IC50 at PIK3CA (human) came to 124 nM; on PIK3CG (human) it was 459 nM.
The corresponding values for `Cc1ccc(-c2nc(-c3ccc(NC(=O)Nc4cccc(C(=O)N5CCC(N(C)C)CC5)c4)cc3)nc(N3CCOCC3)n2)cc1` are 462 nM and 658 nM.
For the compound `CC(C)Nc1nc(-c2ccc(NC(=O)NC3CC3)cc2)nc(N2CC3CCC(C2)O3)n1`, the IC50 against PIK3CG (human) is 10000 nM.
On the same count and under the same terms, next, `NCCCNc1nc(-c2ccc(NC(=O)Nc3cccnc3)cc2)nc(N2CC3CCC(C2)O3)n1`: 10000 nM.
Still for that read-out and setting: next, `CNC(=O)Nc1ccc(-c2nc(N3CC4CCC(C3)O4)nc(N3CC4CCC(C3)O4)n2)cc1`: 10000 nM.
As for `CN(C)CCN(C)c1ccc(NC(=O)Nc2ccc(-c3nc(N4C5CCC4COC5)nc(N4C5CCC4COC5)n3)cc2)cc1`, the IC50 at PIK3CA (human) worked out at 6030 nM; with PIK3CG;PIK3CA (human) [1], 2.2 nM.
Regarding `CN(C)C1CCN(c2ccc(NC(=O)Nc3ccc(-c4nc(N5C6CCC5COC6)nc(N5C6CCC5COC6)n4)cc3)cc2)CC1`, the IC50 on PIK3CA (human) was 3090 nM; in the test with PIK3CG;PIK3CA (human) [1], 1 nM.
Consider `CN(C)CCOc1ccc(NC(=O)Nc2ccc(-c3nc(N4CCSCC4)nc(N4C5CCC4COC5)n3)cc2)cc1`, for which the IC50 against PIK3CA (human) was determined as 586 nM; on PIK3CG (human) it was 2430 nM.
Regarding `CCN(CC)C(=O)[n+]1ccc(NC(=O)Nc2ccc(-c3nc(N4CCOCC4)nc(N4C5CCC4COC5)n3)cc2)cc1`, the IC50 against PIK3CA (human) is 36 nM and 28 nM; against PIK3CG (human) it was 444 nM and 606 nM.
For `O=C(Nc1ccncc1)Nc1ccc(-c2nc(N3CCC(N4CCOCC4)CC3)nc(N3CC4CCC(C3)O4)n2)cc1`, the IC50 was found to be 1850 nM on PIK3CA (human), 4000 nM against PIK3CG (human) and 1000 nM in the test with PIK3CG;PIK3CA (human) [1].
Take `O=C(Nc1ccc(-c2nc(N3C[C@@H]4C[C@H]3CO4)nc(N3C[C@@H]4C[C@H]3CO4)n2)cc1)Nc1ccc(N2CCNCC2)cc1`: the IC50 with PIK3CG;PIK3CA (human) [1] was 100 nM.
For the compound `FC(F)c1nc2ccccc2n1-c1nc(N2CCOCC2)nc(N2CC3CCC(C2)O3)n1`, the IC50 on PIK3CA (human) is 24 nM; against PIK3CG (human), 43 nM.
With `Cc1ccc(-c2nc(-c3ccc(NC(=O)Nc4ccc(C(=O)N5CCCC5)cc4)cc3)nc(N3CCOCC3)n2)cc1`, the IC50 at PIK3CA (human) was 12.5 nM; against PIK3CG (human) it was 72 nM; with PIK3CG;PIK3CA (human) [2], 113 nM; in the test with PIK3CG;PIK3CA (human) [3], 522 nM.
As for `CN(C)C1CCN(C(=O)c2ccc(NC(=O)Nc3ccc(-c4nc(-c5ccccc5)nc(N5CCOCC5)n4)cc3)cc2)CC1`, the IC50 came to 3.5 nM at PIK3CA (human), 20.5 nM on PIK3CG (human), 58 nM with PIK3CG;PIK3CA (human) [2] and 253 nM with PIK3CG;PIK3CA (human) [3].
At PIK3CG (human), `CN1CCCN(c2nc(-c3ccc(NC(=O)Nc4cccnc4)cc3)nc(N3CC4CCC(C3)O4)n2)C1` showed an IC50 of 10000 nM. That is a double-digit micromolar value.
As for `CC(C)N1CCN(C(=O)c2ccc(NC(=O)Nc3ccc(-c4nc(C5CCOCC5)nc(N5CCOCC5)n4)cc3)cc2)CC1`, the IC50 against PIK3CA (human) came to 3.2 nM; at PIK3CG (human) it was 9.5 nM.
For the compound `O=C(Nc1ccc(C(=O)Cc2ccccn2)cc1)Nc1ccc(-c2nc(N3CCOCC3)nc(N3CCOCC3)n2)cc1`, the IC50 at PIK3CA (human) is 3 nM; against PIK3CG (human), 23 nM; in the test with PIK3CG;PIK3CA (human) [2], 68 nM; with PIK3CG;PIK3CA (human) [3], 31 nM.
`O=C(Nc1ccc(-c2nc(OCCN3CCCCC3)nc(N3CC4CCC(C3)O4)n2)cc1)Nc1cccnc1`: the IC50 on PIK3CG (human) stood at 10000 nM. That is a double-digit micromolar value.
Same read-out and setting: then `O=C(O)CNC1CCN(c2nc(-c3ccc(NC(=O)Nc4ccncc4)cc3)nc(N3CC4CCC(C3)O4)n2)CC1`, with 10000 nM.
With `CC(C)N1CCN(C(=O)c2ccc(NC(=O)Nc3ccc(-c4nc(N5CCCCC5)nc(N5CCOCC5)n4)cc3)cc2)CC1`, the IC50 was determined as 58.5 nM against PIK3CG (human), 43 nM with PIK3CG;PIK3CA (human) [2] and 193 nM with PIK3CG;PIK3CA (human) [3].
Consider `CN(C)CCN(C)C(=O)c1ccc(NC(=O)Nc2ccc(-c3nc(C4CCOCC4)nc(N4CCOCC4)n3)cc2)cc1`, for which the IC50 against PIK3CA (human) was found to be 0.8 nM.
`O=C(Nc1ccc(-c2nc(NCCO)nc(N3CC4CCC(C3)O4)n2)cc1)Nc1cccnc1`: at PIK3CG (human), the IC50 was 10000 nM.
Regarding `CN(C)CCNC(=O)c1ccc(NC(=O)Nc2ccc(-c3nc(N4CCCCC4)nc(N4CCOCC4)n3)cc2)cc1`, the IC50 on PIK3CA (human) is 3.5 nM; on PIK3CG (human) it was 57.5 nM.
Compound `CN1CCN(c2ccc(NC(=O)Nc3ccc(-c4nc(N5C6CCC5COC6)nc(N5[C@H](CO)CC[C@@H]5CO)n4)cc3)cc2)CC1` registered an IC50 against PIK3CG (human) of 10000 nM.
In turn, `O=C(Nc1ccc(-c2nc(N3C4CCC3COC4)nc(N3C4CCC3COC4)n2)cc1)N1CCNCC1` showed an IC50 on PIK3CG (human) of 10000 nM. In other words, the double-digit micromolar range.
Consider `CC(C)Nc1nc(-c2ccc(NC(=O)Nc3ccc(N4CCN(C)CC4)nc3)cc2)nc(N2CC3CCC(C2)O3)n1`, for which the IC50 came to 521 nM at PIK3CA (human), 7030 nM at PIK3CG (human) and 50 nM with PIK3CG;PIK3CA (human) [1].
Consider `CN1CCC(Nc2ccc(NC(=O)Nc3ccc(-c4nc(N5C6CCC5COC6)nc(N5C6CCC5COC6)n4)cc3)cc2)CC1`, for which the figures for the IC50 at PIK3CA (human) and in the test with PIK3CG;PIK3CA (human) [1] were 6340 nM and 3 nM, respectively.
In turn, `O=C(Nc1ccc(C(=O)NCCN2CCCC2)cc1)Nc1ccc(-c2nc(O[C@H]3CCOC3)nc(N3CCOCC3)n2)cc1` displayed an IC50 in the test with PIK3CG;PIK3CA (human) [3] of 27 nM.
`CC(C)Nc1nc(-c2ccc(NC(=O)NCCO)cc2)nc(N2CC3CCC(C2)O3)n1` came in with an IC50 at PIK3CG (human) of 10000 nM. That is a double-digit micromolar value.
Take `COCCNc1ccc(NC(=O)Nc2ccc(-c3nc(N4C5CCC4COC5)nc(N4C5CCC4COC5)n3)cc2)cc1`: the IC50 is 1100 nM against PIK3CA (human), 7140 nM against PIK3CG (human) and 1.2 nM with PIK3CG;PIK3CA (human) [1].

(Values after the Kinase Knowledgebase extract (Sharma et al. 2016).)
